Values quoted from earlier work in paper PMC12465416 (BMC Infectious Diseases, 2025).
Structures can show the parent of a compound that is named as a salt. Where a SMILES comes first, the peptide text is derived from it. Bridges are numbered along the chain shown (N, C = ends). [ ]: non-standard residue; d: D form. The star is where a group is joined. X1 = CC[C@H](C)CCCCC(=O)*; Dab = NCC[C@H](N)C(=O)O

Settings: IV PMB alone to treat CRGNB pneumonia

## CC[C@H](C)CCCCC(=O)N[C@@H](CCN)C(=O)N[C@H](C(=O)N[C@@H](CCN)C(=O)N[C@H]1CCNC(=O)[C@H]([C@@H](C)O)NC(=O)[C@H](CCN)NC(=O)[C@H](CCN)NC(=O)[C@H](CC(C)C)NC(=O)[C@@H](Cc2ccccc2)NC(=O)[C@H](CCN)NC1=O)[C@@H](C)O [PMB, polymyxin B sulfate] (X1-[Dab]T[Dab][Dab][Dab][dF]L[Dab][Dab]T; lactam 4-C)
  drug concentrations in ELF compared with those in plasma: significantly lower
